In one experiment the target is human-GST P1 (hGST P1) (Homo sapiens, UniProt P09211). Nature of the experiment: Spectrophotometric GST P1 enzyme inhibition test (GSH/CDNB conjugation), IC50 determination. The conditions noted are these: spectrophotometric enzyme activity, ctapm1 concentrations between 0-100 µM; GraphPrism calculation; Figure 1. Format: biochemical. Here is the method:
Pure human-GST P1 (hGST P1) enzyme has been used as target protein in enzyme inhibition tests. "Ethacrynic acid" has been used as the model inhibitor compound. Ctapm1 (compound 1) compound which is a tetrahydrocarbazole derivative has been used as the basic precursor inhibitor for compounds that are designed, synthesized and are planned to be synthesized with advanced modifications.
The enzyme activity was determined over the activity of GST P1 enzyme which conjugated GSH and 1-chloro-2,4-dinitrobenzene (CDNB). The test medium was prepared to include 100 mM sodium phosphate buffer (pH 6.5) comprising 1 mM EDTA, 1 mM GSH, 1 mM CDNB and 5% ethanol and the temperature of the medium was determined as 30°C. The formation of a conjugate (GS-DNB) was monitored for 1 minute over the absorbance increase at 340 nm wavelength. The specific activity was calculated using 0.0096 µM^-1 cm ^-1 absorption coefficient. […] [formula] ΔA: Absorbance change (A340/minute.ml) Vr: Reaction volume (ml) d: Dilution factor ε: Molar absorption coefficient (9,6 mM^-1, cm^-1) ℓ: Light path (0,524 cm for 1 cm microplate measurements for Standard spectrophotometry vessel, Ve: Volume added to the stock enzyme reaction medium (ml) […]
In order to determine IC50 values of compounds both the standard spectrophotometric method and the microplate kinetic reading method was used together. […]

A further experiment deals with GST P1 (Homo sapiens, UniProt P09211). Nature of the experiment: Enzyme kinetic analysis with GST P1 (GSH- and CDNB-dependent Michaelis-Menten / Lineweaver-Burk), Ki inhibition constants. The format is biochemical. The conditions noted are these: Figure 2. As for the experimental part:
Figure 1. IC50 dose(Log)-inhibition graph of the spectrophotometric enzyme activity of GST P1 at concentrations of the ctapm1 compound between 0-100 µM. Figure 2. kinetic analysis results of ctapm1 compound with GST P1. A and C are the GSH and CDNB dependent Michaelis-Menten graphic of the ctapm1 compound and B and D are the GSH and CDNB dependent Lineweaver-Burk graphs of the ctapm1 compound. Figure 3. The schematic view of the THC fragment, its load distribution and elemental features. 2-dimension schematic view (a) of "2,3,4,9-tetrahydro-1H-carbazole"in (shortly tetra hydro or THC) and the load distribution (b) of the THC fragment. […]
The enzyme activity was determined over the activity of GST P1 enzyme which conjugated GSH and 1-chloro-2,4-dinitrobenzene (CDNB). The test medium was prepared to include 100 mM sodium phosphate buffer (pH 6.5) comprising 1 mM EDTA, 1 mM GSH, 1 mM CDNB and 5% ethanol and the temperature of the medium was determined as 30°C. The formation of a conjugate (GS-DNB) was monitored for 1 minute over the absorbance increase at 340 nm wavelength. The specific activity was calculated using 0.0096 µM^-1 cm ^-1 absorption coefficient. […]

Among the data in patent EP3820845B1, “NOVEL, NEW GENERATION INHIBITOR COMPOUNDS SPECIFIC TO GST P1 ENZYME” (HACETTEPE ÜNIVERSITESI, priority 2018, dated 2020) are IC50 and Ki values, retold here.

Read-outs that look alike come from different tables or passages of the source.

Sequence of GST P1 (P09211 2-210 limits assumed): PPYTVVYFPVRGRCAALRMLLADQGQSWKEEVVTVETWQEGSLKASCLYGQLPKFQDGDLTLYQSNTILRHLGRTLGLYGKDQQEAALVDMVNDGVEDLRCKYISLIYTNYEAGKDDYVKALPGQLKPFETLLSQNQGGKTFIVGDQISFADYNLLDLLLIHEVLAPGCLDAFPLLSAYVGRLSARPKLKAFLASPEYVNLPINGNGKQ
Sequence of human-GST P1 (hGST P1) (P09211 2-210 limits assumed): as above

With `S=c1[nH]nc(C2CCc3[nH]c4ccccc4c3C2)[nH]1` (stereo not drawn) [Compound 1, 3-(2,3,4,9-tetrahydro-1H-carbazole-3-yl)-1H-1,2,4-triazole-5(4H)-thione], at human-GST P1 (hGST P1), the IC50 is 1070 nM. Besides, the Ki on GST P1 (competitive type, read-out: Ki inhibition constant against CDNB) amounted to 1700 nM; at GST P1 (non-competitive type, read-out: Ki inhibition constant against GSH), 1740 nM.
